Test results taken from ChEMBL document CHEMBL5505957 (Eur J Med Chem, 2024).
pIC50: −log10 of the molar value.

Tested on: Influenza A virus
Experiment: microbe, parasite or virus in culture
Details: A/Puerto Rico/8/34, MDCK, 48 h

Cc1[nH]c(=O)[nH]c(=O)c1CCCc1cn(C2OC(CO)C(O)C2O)nn1 (stereo unspecified)
pIC50: 4.17
